Entries after “also recorded” stand apart in the source; their conditions may differ.

As a reminder, the IC50 is the point on the concentration scale where inhibition reaches its midpoint.

The subject of one assay is HepG2 cells. In words: MTT assay, antiproliferative activity, HepG2. The format is cell-based, human. As to conditions: for IC50: Homo sapiens, HepG2, MTT, 24 h treatment, mean ± SD; for Selectivity Index (SI) HepG2: IC50 of healthy cells (NIH/3T3)/IC50 of cancer cells. As for the experimental part: (§1) MCF-7 (human ER + breast cancer, HTB-22, USA), A549 (human nonsmall cell lung cancer, ATTC CRM-CCL-185, USA), HepG2 (human liver cancer, ATTC HB-8065, USA), and NIH/3T3 (mouse embryonic fibroblast, ATCC, CRL-1658, USA) cells were maintained in DMEM supplemented with 10% fetal bovine serum and 1% penicillin/streptomycin. The cells were maintained under appropriate conditions (37 °C, 5% CO2).
(§2) The antiproliferative activity of the newly synthesized compounds was measured using the MTT assay as described in a previous study. Briefly, cells were seeded at a density of 6 × 10^3 cells/well and incubated for 24 h in a 37 °C humidified incubator with 5% CO2. Afterwards, the cells were treated with increasing concentrations (1, 2.5, 5, 10, 25, 50, 75, and 100 μM) of compounds and incubated for another 24 h. Moreover, some cells were incubated with doxorubicin (1, 5, 10, 25, and 50 μM) for comparison, while other cells treated only with 1% DMSO was used as the solvent control. After incubation, 20 μL of MTT solution (5 mg/mL in PBS) was added to each well, and the plate was incubated for 4 h under the same conditions. Following this period, the medium was discarded and replaced with DMSO. The absorbance of dissolved formazan crystals was measured using a multiplate reader. The IC50 value and the selectivity index of each compound were calculated as previously described.
(§3) The antiproliferative effect of all newly synthesized thiazole-integrated pyrrolotriazinone derivatives were assessed against cancer cell lines (MCF-7, A549, and HepG2) as well as a healthy cell line (NIH/3T3) using the MTT assay. The IC50 values were determined through the nonlinear regression algorithm for log (inhibitor) versus normalized response-variable slope, as implemented in GraphPad [Y = 100/(1 + 10^X−LogIC50), where X represents the logarithm of the inhibitor concentration and Y denotes the response]. Additionally, Selectivity Indices (SI: IC50 of healthy cells/IC50 of cancer cells) were calculated.

The test system of another assay is NIH/3T3 cells. In words: MTT assay, healthy cell line NIH/3T3. The format is cell-based. Conditions: Mus musculus, NIH3T3, 24 h treatment, mean ± SD. As for the experimental part: as §1, §2, §3
(In general: Formazan colour is commonly taken as a measure of viable cells.)

For the next assay, the system named is A549 cells. The assay is described as follows: MTT assay, antiproliferative activity, A549. As to conditions: for IC50: Homo sapiens, A549, MTT, 24 h treatment, mean ± SD; for Selectivity Index (SI) A549: IC50 of healthy cells (NIH/3T3)/IC50 of cancer cells. The format is cell-based, human. As for the experimental part:
as §1, §2, §3

The subject of assay [1] is PI3K. In words: PI3K protein levels by ELISA in MCF-7 cells. As to conditions: IC50 concentration, 24 h, compared to 1% DMSO control. The format is cell-based, human. The protocol:
(§4) The protein levels of PI3K in MCF-7 and HepG2 cells were assessed using enzyme-linked immunosorbent assay (ELISA) kits. […] After the incubation period, the medium was collected, and PI3K protein levels were measured using ELISA kits according to the manufacturer’s instructions (Cat no: ELK9879, ELK Biotechnology, Denver, USA).
For orientation: ELISA stands for enzyme-linked immunosorbent assay.

A further assay deals with MCF-7 cells. In words: MTT assay, antiproliferative activity, MCF-7. The format is cell-based, human. Conditions: for IC50: Homo sapiens, MCF7, MTT, 24 h treatment, mean ± SD; for Selectivity Index (SI) MCF-7: IC50 of healthy cells (NIH/3T3)/IC50 of cancer cells. As for the experimental part: as §1, §2, §3
A further assay deals with PI3K enzyme. As to conditions: cited from earlier work.
For assay [2], the system named is PI3K. In words: PI3K protein levels by ELISA in HepG2 cells. The format is cell-based, human. Conditions: IC50 concentration, 24 h, compared to 1% DMSO control. As for the experimental part:
as §4

On to `O=c1n(-c2nc(-c3ccc(F)c(Cl)c3)cs2)ncc2cccn12` [Compound 26, 3-(4-(3-chloro-4-fluorophenyl)thiazol-2-yl)pyrrolo[1,2-d][1,2,4]triazin-4(3H)-one], for which the half-inhibitory concentration (IC50) was 15.1 ± 0.61 µM in the assay on HepG2 cells, greater than 100 µM in the assay on NIH/3T3 cells, 25.2 ± 0.39 µM with A549 cells and 14.2 ± 0.42 µM in the assay on MCF-7 cells. Also, the “Selectivity Index (SI) HepG2” value with HepG2 cells was 9.22. In addition, the “Selectivity Index (SI) A549” value with A549 cells came out at 5.53. For the same compound, the “PI3K protein levels in MCF-7 cells” value in the assay with PI3K [1] is “significantly reduced”.
Take `Cc1ccccc1-n1c(Cn2cnc3c(N)ncnc32)nn2ccc(C)c2c1=O` [Compound 5]: the half-maximal inhibitory concentration (IC50) on PI3K enzyme was 0.11 µM.
`Cc1ccccc1-n1c(Cn2cnc3c(N)ncnc32)nc2cccc(C)c2c1=O` [IC87114]: the IC50 at PI3K enzyme was 0.13 µM.
For the compound `O=c1n(-c2nc(-c3ccc(Cl)cc3)cs2)ncc2cccn12` [Compound 21, 3-(4-(4-chlorophenyl)thiazol-2-yl)pyrrolo[1,2-d][1,2,4]triazin-4(3H)-one], in the assay with PI3K [2], the “PI3K protein levels in HepG2 cells” value is given as “did not alter PI3K levels”. For the same compound, in the assay with HepG2 cells, the half-maximal inhibitory concentration (IC50) is 10.2 ± 0.95 µM and the “Selectivity Index (SI) HepG2” value is given as 10.40. In addition, in the assay with NIH/3T3 cells, the IC50 is greater than 100 µM. Besides, in the assay with A549 cells, half-maximal inhibition (IC50) was put at 39.2 ± 1.41 µM and the “Selectivity Index (SI) A549” value is 2.72. In the assay with PI3K [1], the “PI3K protein levels in MCF-7 cells” value is “significantly reduced; also recorded: did reduce PI3K levels”. In addition, in the assay on MCF-7 cells, the IC50 came out at 11.2 ± 0.12 µM and the “Selectivity Index (SI) MCF-7” value came out at 9.51.
For `Cc1ccn2nc(C(C)n3cnc4c(N)ncnc43)n(-c3ccccc3)c(=O)c12` (stereo not drawn) [Compound 6], the IC50 on PI3K enzyme is 0.075 µM.
Take `O=c1n(-c2nc(-c3ccc(Cl)c(Cl)c3)cs2)ncc2cccn12` [Compound 25, 3-(4-(3,4-dichlorophenyl)thiazol-2-yl)pyrrolo[1,2-d][1,2,4]triazin-4(3H)-one]: the “PI3K protein levels in HepG2 cells” value in the assay with PI3K [2] was “markedly diminished; also recorded: significant reduction in PI3K protein levels”. Besides, in the assay with HepG2 cells, the concentration for half-maximal inhibition (IC50) is 7.21 µM and the “Selectivity Index (SI) HepG2” value is 15.20. In the assay on NIH/3T3 cells, the concentration for half-maximal inhibition (IC50) was greater than 100 µM. Besides, in the assay on A549 cells, the half-maximal inhibitory concentration (IC50) was determined as 38.7 ± 0.4 µM and the “Selectivity Index (SI) A549” value was found to be 2.84. Moreover, the “PI3K protein levels in MCF-7 cells” value with PI3K [1] is “significantly reduced; also recorded: significant reduction in PI3K protein levels”. Also, in the assay on MCF-7 cells, the IC50 was 8.1 ± 0.17 µM and the “Selectivity Index (SI) MCF-7” value is 13.60.
Turning to `O=c1n(-c2nc(-c3ccc(Cl)cc3Cl)cs2)ncc2cccn12` [Compound 27, 3-(4-(2,4-dichlorophenyl)thiazol-2-yl)pyrrolo[1,2-d][1,2,4]triazin-4(3H)-one], the “PI3K protein levels in HepG2 cells” value in the assay with PI3K [2] was “markedly diminished; also recorded: reduced PI3K levels; also recorded: significant reduction in PI3K protein levels”. In addition, the IC50 in the assay on HepG2 cells was 6.18 ± 0.63 µM; in the assay with NIH/3T3 cells it was greater than 100 µM; in the assay with A549 cells, 37.2 ± 1.15 µM; with MCF-7 cells, 9.23 ± 1.09 µM. Moreover, the “Selectivity Index (SI) A549” value with A549 cells worked out at 2.83. Besides, the “PI3K protein levels in MCF-7 cells” value in the assay on PI3K [1] is “significantly reduced; also recorded: reduced PI3K levels; also recorded: significant reduction in PI3K protein levels”. Further, the “Selectivity Index (SI) MCF-7” value in the assay with MCF-7 cells was determined as 10.30.
